Entries after “also recorded” stand apart in the source; their conditions may differ. Where two headings read alike, the source gives them in different places.
What was measured:
hDAT [1] = target: T1, hDAT (Homo sapiens, UniProt Q01959); details: read-out: hDAT Receptor Binding Ki ± SD, [3H]-WIN-35,428, cited from earlier work
hSERT [2] = target: T2, hSERT (Homo sapiens, UniProt P31645); details: read-out: hSERT Receptor Binding Ki ± SD, [3H]-Citalopram, cited from earlier work
dopaminergic D2 receptor = dopaminergic D2 receptor (Homo sapiens, UniProt P14416); details: read-out: D2 Receptor Binding Ki ± SD, [3H]-Spiperone, cited from earlier work
adrenergic α1A receptor = target: T3, adrenergic α1A receptor (Homo sapiens, UniProt P35348); details: read-out: α1A Receptor Binding Ki ± SD, [3H]-Prazosin, cited from earlier work
T3 sequence (P35348 1-466): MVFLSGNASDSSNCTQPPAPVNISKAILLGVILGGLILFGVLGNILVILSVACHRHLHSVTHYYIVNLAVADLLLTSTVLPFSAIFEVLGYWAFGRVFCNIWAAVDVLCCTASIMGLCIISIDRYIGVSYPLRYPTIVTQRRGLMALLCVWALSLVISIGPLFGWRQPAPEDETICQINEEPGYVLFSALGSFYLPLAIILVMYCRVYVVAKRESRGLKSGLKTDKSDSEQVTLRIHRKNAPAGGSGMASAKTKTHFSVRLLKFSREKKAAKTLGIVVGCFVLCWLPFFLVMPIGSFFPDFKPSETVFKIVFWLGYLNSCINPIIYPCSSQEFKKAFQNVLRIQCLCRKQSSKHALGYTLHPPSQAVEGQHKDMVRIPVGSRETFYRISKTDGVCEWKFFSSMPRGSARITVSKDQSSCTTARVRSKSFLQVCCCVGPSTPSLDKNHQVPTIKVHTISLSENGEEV

adrenergic α2A receptor = target: T4, adrenergic α2A receptor (Homo sapiens, UniProt P08913); details: [3H]-Rauwolscine, cited from earlier work; for Ki: read-out: α2A Receptor Binding Ki ± SD
T4 sequence (P08913 1-465): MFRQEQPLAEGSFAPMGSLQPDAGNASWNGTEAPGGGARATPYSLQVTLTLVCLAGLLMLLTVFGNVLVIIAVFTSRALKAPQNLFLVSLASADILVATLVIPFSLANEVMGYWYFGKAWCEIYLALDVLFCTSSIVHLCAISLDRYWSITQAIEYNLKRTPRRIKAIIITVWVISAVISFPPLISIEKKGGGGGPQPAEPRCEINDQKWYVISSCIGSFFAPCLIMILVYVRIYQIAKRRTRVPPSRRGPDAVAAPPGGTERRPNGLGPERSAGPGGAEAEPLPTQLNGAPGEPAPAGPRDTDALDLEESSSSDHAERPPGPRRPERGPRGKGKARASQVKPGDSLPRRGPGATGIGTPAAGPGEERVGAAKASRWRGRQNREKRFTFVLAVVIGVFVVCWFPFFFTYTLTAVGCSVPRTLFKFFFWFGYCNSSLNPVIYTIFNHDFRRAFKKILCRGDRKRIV

Mouse TAAR1 = details: [3H]-RO5166017, read-out: Mouse TAAR1 Receptor Binding Ki ± SD, cited from earlier work
hNET = hNET (Homo sapiens, UniProt P23975); assay: Transporter-mediated monoamine efflux, [3H]-NE preloaded HEK293 cells; assay type: cell-based; set-up: expressed in transfected cells; host or cells: HEK293; details: 100 μM of drug, 45 min, HEK293 hNET preloaded with [3H]-NE; data for some pyrovalerones adapted from [13]
Method: (§1) Monoamine efflux was assessed using human embryonic kidney 293 (HEK293) cells (Invitrogen, Zug, Switzerland) stably transfected with the human norepinephrine (hNET), dopamine (hDAT), or serotonin (hSERT) uptake transporters. In summary, the cells were seeded in poly-D-lysine coated XF24 cell culture microplates (Seahorse Biosciences, North Billerica, MA, USA) and cultured overnight at a concentration of 100,000 cells per well.
(§2) The cells were then exposed to Krebs–HEPES release buffer (85 μL/well) comprised of 130 mM NaCl, 1.3 mM KCl, 2.2 mM CaCl2, 1.2 mM MgSO4, 1.2 mM KH2PO4, 10 mM HEPES, and 10 mM D-glucose at a pH of 7.5, which also contained 10 nM radiolabelled neurotransmitter ([^3H]-5-HT for SERT, [^3H]-DA for DAT or [^3H]-NE for NET), 1 μM unlabelled neurotransmitter (DA or NE, only), 10 μM pargyline, and 0.2 mg/mL of ascorbic acid. This enabled the loading of the cells with their respective neurotransmitters via the uptake transporters. Afterwards, the release buffer was replaced by fresh buffer to wash the cells twice and the cells were then incubated for 15 min (DAT and SERT) or 45 min (NET) to 100 μM of test drugs dissolved in 1 mL of Krebs–HEPES buffer while shaking at 300 rpm and 37 °C. Termination of the release reaction occurred by removing the buffer from the cells and washing them with ice-cold buffer. Next, 50 μL of lysis buffer was added to the cells for 1 h in order to lyse the cells. Thereafter, 40 μL of the lysed cell mixture was transferred into scintillation vials (Perkin–Elmer, Schwerzenbach, Switzerland) containing 3 mL of scintillation fluid (Ultimagold, Perkin–Elmer, Schwerzenbach, Switzerland) and measured using liquid scintillation (as previously described in Section 2.2).
(§3) To quantify the “pseudo efflux” caused by the non-transporter mediated monoamine release and successive reuptake inhibition, each monoamine efflux experiment included a control where the cells were exposed to each respective transporter blocker (nisoxetine for NET, mazindol for DAT, and citalopram for SERT). The radioactivity inside the cells without any drug was set as 100%. The nonspecific release was subtracted from the total observed release at 100 μM of each examined drug to calculate the specific transporter mediated release. One single concentration of the test drugs was used (100 μM) and release exposure durations were set based on previously evaluated kinetics of the release-over-time curves.
(§4) An ANOVA followed by a Holm–Sidak test was conducted to compare each drug’s specific transporter-mediated efflux based on at least three independent experiments to the control condition.

hDAT [3] = target: T1, hDAT; assay: Transporter-mediated monoamine efflux, [3H]-DA preloaded HEK293 cells; assay type: cell-based; set-up: expressed in transfected cells; host or cells: HEK293; details: 100 μM of drug, 15 min, HEK293 hDAT preloaded with [3H]-DA; data for some pyrovalerones adapted from [13]
Method: as §1, §2, §3, §4

hSERT [4] = target: T2, hSERT; assay: Transporter-mediated monoamine efflux, [3H]-5-HT preloaded HEK293 cells; assay type: cell-based; set-up: expressed in transfected cells; host or cells: HEK293; details: 100 μM of drug, 15 min, HEK293 hSERT preloaded with [3H]-5-HT; data for some pyrovalerones adapted from [13]
Method: as §1, §2, §3, §4

[5] = ref Luethi, Kolaczynska et al. (2019)

T1 sequence (Q01959 whole entry): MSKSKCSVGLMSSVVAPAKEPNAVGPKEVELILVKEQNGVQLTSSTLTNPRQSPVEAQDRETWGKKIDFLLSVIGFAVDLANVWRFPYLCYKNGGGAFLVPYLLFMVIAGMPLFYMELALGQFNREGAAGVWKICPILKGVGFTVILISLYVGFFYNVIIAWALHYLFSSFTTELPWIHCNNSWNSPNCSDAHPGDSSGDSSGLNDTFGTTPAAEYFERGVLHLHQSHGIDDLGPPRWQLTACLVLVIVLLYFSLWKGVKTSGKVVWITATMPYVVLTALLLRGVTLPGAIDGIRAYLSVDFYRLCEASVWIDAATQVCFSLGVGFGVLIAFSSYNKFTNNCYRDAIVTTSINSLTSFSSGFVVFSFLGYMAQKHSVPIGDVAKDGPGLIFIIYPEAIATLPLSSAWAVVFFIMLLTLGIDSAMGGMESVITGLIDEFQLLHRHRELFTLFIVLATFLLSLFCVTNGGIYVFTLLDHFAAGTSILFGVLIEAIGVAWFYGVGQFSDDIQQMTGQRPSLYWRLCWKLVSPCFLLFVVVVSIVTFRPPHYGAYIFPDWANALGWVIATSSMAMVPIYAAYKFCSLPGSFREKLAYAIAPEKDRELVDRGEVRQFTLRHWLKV
Sequence of hNET (P23975 whole entry): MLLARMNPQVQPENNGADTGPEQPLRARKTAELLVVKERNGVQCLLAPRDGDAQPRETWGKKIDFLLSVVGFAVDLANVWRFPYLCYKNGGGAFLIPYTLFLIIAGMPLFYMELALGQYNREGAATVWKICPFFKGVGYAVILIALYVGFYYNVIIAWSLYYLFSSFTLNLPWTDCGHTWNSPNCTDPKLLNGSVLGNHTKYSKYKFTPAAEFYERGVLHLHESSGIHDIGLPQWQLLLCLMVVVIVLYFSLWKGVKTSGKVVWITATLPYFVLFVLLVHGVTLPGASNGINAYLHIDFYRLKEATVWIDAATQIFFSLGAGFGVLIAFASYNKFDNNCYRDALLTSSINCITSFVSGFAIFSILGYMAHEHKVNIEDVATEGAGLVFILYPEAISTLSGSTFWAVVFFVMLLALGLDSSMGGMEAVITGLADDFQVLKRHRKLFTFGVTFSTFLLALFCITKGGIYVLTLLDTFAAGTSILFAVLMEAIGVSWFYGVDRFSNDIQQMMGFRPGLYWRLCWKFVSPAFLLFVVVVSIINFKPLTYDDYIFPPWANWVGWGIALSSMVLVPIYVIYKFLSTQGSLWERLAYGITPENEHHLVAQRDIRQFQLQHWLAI
Sequence of dopaminergic D2 receptor (P14416 whole entry): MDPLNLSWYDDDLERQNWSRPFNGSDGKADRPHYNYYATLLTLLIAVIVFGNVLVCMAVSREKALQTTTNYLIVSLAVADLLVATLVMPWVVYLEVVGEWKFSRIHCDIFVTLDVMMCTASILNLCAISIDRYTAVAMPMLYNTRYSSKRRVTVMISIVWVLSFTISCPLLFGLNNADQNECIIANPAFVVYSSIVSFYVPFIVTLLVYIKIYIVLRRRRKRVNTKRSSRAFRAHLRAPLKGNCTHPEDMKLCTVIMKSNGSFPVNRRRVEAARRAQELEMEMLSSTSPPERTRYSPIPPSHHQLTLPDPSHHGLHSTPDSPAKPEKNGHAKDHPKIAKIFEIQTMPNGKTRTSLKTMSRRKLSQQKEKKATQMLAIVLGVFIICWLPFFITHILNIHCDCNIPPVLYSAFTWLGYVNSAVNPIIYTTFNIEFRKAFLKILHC
T2 sequence (P31645 whole entry): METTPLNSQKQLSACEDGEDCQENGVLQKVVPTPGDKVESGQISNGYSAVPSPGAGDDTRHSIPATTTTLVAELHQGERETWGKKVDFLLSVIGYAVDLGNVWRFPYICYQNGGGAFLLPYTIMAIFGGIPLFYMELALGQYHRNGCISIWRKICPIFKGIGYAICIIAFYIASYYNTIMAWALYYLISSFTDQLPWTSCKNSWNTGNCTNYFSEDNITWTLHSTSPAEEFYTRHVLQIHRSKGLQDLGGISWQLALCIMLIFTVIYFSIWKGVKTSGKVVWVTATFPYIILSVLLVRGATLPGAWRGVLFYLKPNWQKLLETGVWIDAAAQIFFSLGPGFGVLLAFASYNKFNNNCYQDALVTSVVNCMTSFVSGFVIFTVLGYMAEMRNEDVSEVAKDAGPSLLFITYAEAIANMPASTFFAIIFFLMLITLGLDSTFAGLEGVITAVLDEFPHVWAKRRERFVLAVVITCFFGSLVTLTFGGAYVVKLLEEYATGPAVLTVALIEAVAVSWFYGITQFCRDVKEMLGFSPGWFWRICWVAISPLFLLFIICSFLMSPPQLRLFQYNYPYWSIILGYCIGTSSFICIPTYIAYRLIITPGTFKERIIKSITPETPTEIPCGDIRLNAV

In the case of `CCCC(C(=O)c1ccc2c(c1)OCO2)N1CCCC1` (centres unmarked) [MDPV, 3,4-methylenedioxypyrovalerone], the Ki (hDAT [1]; ref Simmler et al. (2013)) is given as 0.01 ± 0.002 µM, the Ki (hSERT [2]; ref Simmler et al. (2013)) is given as 2.9 ± 0.1 µM and the Ki (dopaminergic D2 receptor; ref Simmler et al. (2013)) is given as greater than 30 µM. The Ki (adrenergic α1A receptor; ref Simmler et al. (2013)) was greater than 6 µM, the Ki (adrenergic α2A receptor; ref Simmler et al. (2013)) was greater than 20 µM and the Ki (Mouse TAAR1; ref Simmler et al. (2013)) was greater than 10 µM.

For `CCC(C(=O)c1ccc(F)cc1)N1CCCC1` (stereo not drawn) [4F-PBP, 4-fluoro-α-pyrrolidinobutiophenone], the “Transporter-mediated monoamine efflux (NE) vs nisoxetine” value (hNET) was “did not induce any monoamine efflux”, the “Transporter-mediated monoamine efflux (DA) vs mazindol” value (hDAT [3]) was “did not induce any monoamine efflux” and the “Transporter-mediated monoamine efflux (5-HT) vs citalopram” value (hSERT [4]) was “did not induce any monoamine efflux”.

In the case of `CCCC(C(=O)c1ccc(C)cc1)N1CCCC1` (centres unmarked) [Pyrovalerone, pyrovalerone], the Ki (hDAT [1]; ref Simmler et al. (2013)) is listed as 0.03 ± 0.01 µM, the Ki (hSERT [2]; ref Simmler et al. (2013)) is listed as 5 ± 0.3 µM and the Ki (dopaminergic D2 receptor; ref Simmler et al. (2013)) is listed as greater than 30 µM. The Ki (adrenergic α1A receptor; ref Simmler et al. (2013)) was greater than 6 µM, the Ki (adrenergic α2A receptor; ref Simmler et al. (2013)) was greater than 20 µM and the Ki (Mouse TAAR1; ref Simmler et al. (2013)) was greater than 10 µM.

With `CC(C(=O)c1ccccc1)N1CCCC1` (stereo not drawn) [α-PPP, α-pyrrolidinopropiophenone] the “Transporter-mediated monoamine efflux (NE) vs nisoxetine” value (hNET) was “did not induce any monoamine efflux”, the “Transporter-mediated monoamine efflux (DA) vs mazindol” value (hDAT [3]) was “did not induce any monoamine efflux” and the “Transporter-mediated monoamine efflux (5-HT) vs citalopram” value (hSERT [4]) was “did not induce any monoamine efflux”.

In the case of `Cc1ccc(C(=O)C(C)N2CCCC2)cc1` (stereo not drawn) [4-MePPP, 4-methyl-α-pyrrolidinopropiophenone], the “Transporter-mediated monoamine efflux (NE) vs nisoxetine” value (hNET) is reported as “no monoamine efflux was observed”, the “Transporter-mediated monoamine efflux (DA) vs mazindol” value (hDAT [3]) is reported as “no monoamine efflux was observed” and the “Transporter-mediated monoamine efflux (5-HT) vs citalopram” value (hSERT [4]) is reported as “no monoamine efflux was observed”.

For `CCCCC(C(=O)c1ccc(C)cc1)N1CCCC1` (stereo not drawn) [MPHP, 4-methyl-α-pyrrolidinohexanophenone], the “Transporter-mediated monoamine efflux (NE) vs nisoxetine” value (hNET) was “no monoamine efflux was observed”, the “Transporter-mediated monoamine efflux (DA) vs mazindol” value (hDAT [3]) was “no monoamine efflux was observed” and the “Transporter-mediated monoamine efflux (5-HT) vs citalopram” value (hSERT [4]) was “no monoamine efflux was observed”.

For `CC(C(=O)c1ccc2c(c1)OCO2)N1CCCC1` (stereo not drawn) [MDPPP, 3,4-methylenedioxy-α-pyrrolidinopropiophenone], the Ki (hDAT [1]; ref Rickli et al. (2015)) is listed as 0.18 ± 0.05 µM, the Ki (hSERT [2]; ref Rickli et al. (2015)) is listed as 12 ± 1 µM and the Ki (dopaminergic D2 receptor; ref Rickli et al. (2015)) is listed as greater than 10 µM. For the same molecule, the Ki (adrenergic α1A receptor; ref Rickli et al. (2015)) was greater than 15 µM, the “α2A Receptor Binding Ki ± SD” value (adrenergic α2A receptor; ref Rickli et al. (2015)) was “bound the receptor in the low micromolar range” and the Ki (adrenergic α2A receptor; ref Rickli et al. (2015)) was 14 ± 0.9 µM. For the same molecule, the Ki (Mouse TAAR1; ref Rickli et al. (2015)) was greater than 20 µM.

With `CCCCC(C(=O)c1ccccc1)N1CCCC1` (stereo not drawn) [α-PHP, α-pyrrolidinohexanophenone] the “Transporter-mediated monoamine efflux (NE) vs nisoxetine” value (hNET) was “did not induce any monoamine efflux”, the “Transporter-mediated monoamine efflux (DA) vs mazindol” value (hDAT [3]) was “did not induce any monoamine efflux” and the “Transporter-mediated monoamine efflux (5-HT) vs citalopram” value (hSERT [4]) was “did not induce any monoamine efflux”.

In the case of `CCC(C(=O)c1ccc2c(c1)OCO2)N1CCCC1` (stereo not drawn) [MDPBP, 3,4-methylenedioxy-α-pyrrolidinobutiophenone], the Ki (hDAT [1]; ref Rickli et al. (2015)) is given as 0.02 ± 0.002 µM, the Ki (hSERT [2]; ref Rickli et al. (2015)) is given as 4.1 ± 1.2 µM and the Ki (dopaminergic D2 receptor; ref Rickli et al. (2015)) is given as greater than 20 µM. For the same molecule, the Ki (adrenergic α1A receptor; ref Rickli et al. (2015)) was greater than 4.9 µM, the “α2A Receptor Binding Ki ± SD” value (adrenergic α2A receptor; ref Rickli et al. (2015)) was “bound the receptor in the low micromolar range” and the Ki (adrenergic α2A receptor; ref Rickli et al. (2015)) was 9.4 ± 1.6 µM. For the same molecule, the Ki (Mouse TAAR1; ref Rickli et al. (2015)) was greater than 20 µM.

For `CNC(C)Cc1ccc2c(c1)OCO2` (centres unmarked) [MDMA, 3,4-methylenedioxymethamphetamine, reference compound], the Ki (hDAT [1]; [5]) is listed as greater than 8.5 µM, the Ki (hSERT [2]; [5]) is listed as greater than 7.5 µM and the Ki (dopaminergic D2 receptor; [5]) is listed as greater than 13 µM. For the same molecule, the Ki (adrenergic α1A receptor; [5]) was 6.9 ± 1.2 µM, the Ki (adrenergic α2A receptor; [5]) was 4.6 ± 1.1 µM and the Ki (Mouse TAAR1; [5]) was 3.1 ± 0.7 µM. For the same molecule, the “Transporter-mediated monoamine efflux (NE) vs nisoxetine” value (hNET) was “causes significant release at the transporters”, the “Transporter-mediated monoamine efflux (DA) vs mazindol” value (hDAT [3]) was “causes significant release at the transporters” and the “Transporter-mediated monoamine efflux (5-HT) vs citalopram” value (hSERT [4]) was “causes significant release at the transporters”.

In the case of `CCCC(C(=O)c1ccccc1)N1CCCC1` (stereo not drawn) [α-PVP, α-pyrrolidinopentiophenone], the Ki (hDAT [1]; ref Rickli et al. (2015)) is given as 0.007 ± 0.002 µM, the Ki (hSERT [2]; ref Rickli et al. (2015)) is given as greater than 30 µM and the Ki (dopaminergic D2 receptor; ref Rickli et al. (2015)) is given as greater than 10 µM. The Ki (adrenergic α1A receptor; ref Rickli et al. (2015)) was greater than 15 µM, the Ki (adrenergic α2A receptor; ref Rickli et al. (2015)) was greater than 20 µM and the Ki (Mouse TAAR1; ref Rickli et al. (2015)) was greater than 20 µM. For the same molecule, the “Transporter-mediated monoamine efflux (NE) vs nisoxetine” value (hNET) was “did not induce any monoamine efflux”, the “Transporter-mediated monoamine efflux (DA) vs mazindol” value (hDAT [3]) was “did not induce any monoamine efflux” and the “Transporter-mediated monoamine efflux (5-HT) vs citalopram” value (hSERT [4]) was “did not induce any monoamine efflux”.

With `CCCCC(NCC)C(=O)c1ccccc1` (centres unmarked) [NEH, N-ethylamine-hexanophenone] the “Transporter-mediated monoamine efflux (NE) vs nisoxetine” value (hNET) was “did not produce any monoamine efflux; also recorded: did not induce any monoamine efflux”, the “Transporter-mediated monoamine efflux (DA) vs mazindol” value (hDAT [3]) was “did not produce any monoamine efflux; also recorded: did not induce any monoamine efflux” and the “Transporter-mediated monoamine efflux (5-HT) vs citalopram” value (hSERT [4]) was “did not produce any monoamine efflux; also recorded: did not induce any monoamine efflux”.
